Biological target: T1, SIRT1 (Homo sapiens, UniProt Q96EB6)
T1 sequence (Q96EB6 1-747): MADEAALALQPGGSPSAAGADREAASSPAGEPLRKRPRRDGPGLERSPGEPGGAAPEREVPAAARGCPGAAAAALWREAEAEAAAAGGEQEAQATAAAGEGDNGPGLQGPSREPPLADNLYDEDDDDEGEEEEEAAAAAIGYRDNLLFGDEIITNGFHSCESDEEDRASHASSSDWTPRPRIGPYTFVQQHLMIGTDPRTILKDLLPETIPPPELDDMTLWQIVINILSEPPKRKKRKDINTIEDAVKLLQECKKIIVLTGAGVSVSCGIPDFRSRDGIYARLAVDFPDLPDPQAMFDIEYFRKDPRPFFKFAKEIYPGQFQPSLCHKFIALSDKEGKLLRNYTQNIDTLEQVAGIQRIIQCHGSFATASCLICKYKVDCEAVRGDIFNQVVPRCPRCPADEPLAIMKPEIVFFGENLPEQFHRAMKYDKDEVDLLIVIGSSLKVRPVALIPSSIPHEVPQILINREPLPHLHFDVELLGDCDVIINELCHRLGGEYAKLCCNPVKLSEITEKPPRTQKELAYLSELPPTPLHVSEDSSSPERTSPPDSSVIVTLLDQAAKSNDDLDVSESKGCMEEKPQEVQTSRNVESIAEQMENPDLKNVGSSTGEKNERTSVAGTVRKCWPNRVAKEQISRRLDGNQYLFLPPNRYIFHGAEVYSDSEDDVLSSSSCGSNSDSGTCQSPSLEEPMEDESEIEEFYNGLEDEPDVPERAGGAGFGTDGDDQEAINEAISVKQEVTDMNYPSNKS
Assay: Trp mass spectrometry assay of SIRT1 activation (Ac-R-H-K-K(Ac)-W-NH2 peptide)
Type: biochemical
Details: Trp peptide 0.5 μM, 120 μM βNAD+, 10 nM SIRT1, 25 min at 25° C.; for Emax: 25 min, read-out: TRP MAX RESP (percent maximum fold activation)
Method in brief: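 N-terminal His-tagged human SIRT1, expressed in BL21(DE3) and purified, was incubated 25 min with an acetylated Trp peptide and NAD plus test compound at varying concentrations, then quenched with formic acid. OAADPR or deacetylated peptide was quantified by mass spectrometry versus compound-free control; EC1.5 is the concentration giving 50% activity increase, with percent maximum activation.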

Row | Emax (relative to control (100%)) | TRP Activity (EC1.5, concentration of test compound that results in 150% activation of SIRT1) | TRP MAX RESP (percent maximum fold activation) (relative to control (100%)) | SMILES
1 | > 150% | A (EC1.5<1 μM) | – | C=CCNC(=O)c1ccc2c(n1)N(C(=O)Nc1ccccn1)[C@H]1CCN2C1 [Example 179, (4S)—N7-allyl-N5-(pyridin-2-yl)-3,4-dihydro-1,4-methanopyrido[2,3-b][1,4]diazepine-5,7(2H)-dicarboxamide]
2 | > 150% | A (EC1.5<1 μM) | – | C[C@@H](NC(=O)c1ccc2c(n1)N(C(=O)Nc1nccc(OC[C@H](O)CO)n1)[C@H]1CCN2C1)C(F)(F)F [Example 244, (4S)—N5-(4-((R)-2,3-dihydroxypropoxy)pyrimidin-2-yl)-N7-((R)-1,1,1-trifluoropropan-2-yl)-3,4-dihydro-1,4-methanopyrido[2,3-b][1,4]diazepine-5,7(2H)-dicarboxamide]
3 | > 150% | C (EC1.5>25 μM) | – | O=C(NCC(F)(F)F)c1ccc2c(n1)N(C(=O)Nc1cccc[n+]1[O-])[C@H]1CC[N+]2([O-])C1 [Example 275, (4S)-5-((1-oxidopyridin-2-yl)carbamoyl)-7-((2,2,2-trifluoroethyl)carbamoyl)-2,3,4,5-tetrahydro-1H-1,4-methanopyrido[2,3-b][1, 4]diazepine 1-oxide]
4 | > 150% | A (EC1.5<1 μM) | – | C[C@@H](NC(=O)c1ccc2c(n1)N(C(=O)Nc1ccc(OC[C@@H](O)CO)cn1)[C@H]1CCN2C1)C(F)(F)F [Example 153, (4S)—N5-(5-((S)-2,3-dihydroxypropoxy)pyridin-2-yl)-N7-((R)-1,1,1-trifluoropropan-2-yl)-3,4-dihydro-1,4-methanopyrido[2,3-b][1,4]diazepine-5,7(2H)-dicarboxamide]
5 | > 150% | B (EC1.5 1-25 μM) | – | NCC(F)(F)CNC(=O)c1ccc2c(n1)N(C(=O)Nc1ccccn1)[C@H]1CCN2C1 [Example 94, (4S)—N7-(3-amino-2,2-difluoropropyl)-N5-(pyridin-2-yl)-3,4-dihydro-1,4-methanopyrido[2,3-b][1,4]diazepine-5,7(2H)-dicarboxamide]
6 | > 150% | B (EC1.5 1-25 μM) | – | Cn1cccc(NC(=O)N2c3nc(C(=O)NC4CC4)ccc3N3CC[C@H]2C3)c1=O [Example 216, (4S)—N7-cyclopropyl-N5-(1-methyl-2-oxo-1,2-dihydropyridin-3-yl)-3,4-dihydro-1,4-methanopyrido[2,3-b][1,4]diazepine-5,7(2H)-dicarboxamide]
7 | – | A (EC1.5<1 μM) | – | CC(NC(=O)c1ccc2c(n1)N(C(=O)Nc1ccccn1)[C@H]1CCN2C1)C1CC1 (single isomer, unassigned) [Example 101]
8 | > 150% | B (EC1.5 1-25 μM) | – | CN(C)CCOc1ccnc(NC(=O)N2c3nc(C(=O)NCC(F)(F)F)ccc3N3CC[C@H]2C3)c1 [Example 227, (4S)—N5-(4-(2-(dimethylamino)ethoxy)pyridin-2-yl)-N7-(2,2,2-trifluoroethyl)-3,4-dihydro-1,4-methanopyrido[2,3-b][1,4]diazepine-5,7(2H)-dicarboxamide]
9 | < 150% | A (EC1.5<1 μM) | – | Cc1cnnc(NC(=O)N2c3nc(C(=O)N[C@H](C)C(F)(F)F)ccc3N3CC[C@H]2C3)c1 [Example 300, (4S)—N5-(5-methylpyridazin-3-yl)-N7-((R)-1,1,1-trifluoropropan-2-yl)-3,4-dihydro-1,4-methanopyrido[2,3-b][1,4]diazepine-5,7(2H)-dicarboxamide]
10 | > 150% | B (EC1.5 1-25 μM) | – | C[C@H](NC(=O)c1ccc2c(n1)N(C(=O)Nc1cc(-c3cnco3)ccn1)[C@H]1CCN2C1)C(F)(F)F [Example 127, (4S)—N5-(4-(oxazol-5-yl)pyridin-2-yl)-N7-((S)-1,1,1-trifluoropropan-2-yl)-3,4-dihydro-1,4-methanopyrido[2,3-b][1,4]diazepine-5,7(2H)-dicarboxamide]

Continued, molecule first:

Row | SMILES | Emax (relative to control (100%)) | TRP Activity (EC1.5, concentration of test compound that results in 150% activation of SIRT1) | TRP MAX RESP (percent maximum fold activation) (relative to control (100%))
11 | O=C(NC1CC1(F)F)c1ccc2c(n1)N(C(=O)Nc1cc(OCCO)ccn1)[C@H]1CCN2C1 (single isomer, unassigned) [Example 262] | > 150% | A (EC1.5<1 μM) | –
12 | C[C@@H](NC(=O)c1ccc2c(n1)N(C(=O)Nc1cc(OCCN)ccn1)[C@H]1CCN2C1)C(F)(F)F [Example 186, (4S)—N5-(4-(2-aminoethoxy)pyridin-2-yl)-N7-((R)-1,1,1-trifluoropropan-2-yl)-3,4-dihydro-1,4-methanopyrido[2,3-b][1,4]diazepine-5,7(2H)-dicarboxamide] | > 150% | B (EC1.5 1-25 μM) | –
13 | Cc1ccc2c(NC(=O)N3c4nc(C(=O)NC5CC5(F)F)ccc4N4CC[C@H]3C4)n[nH]c2n1 (single isomer, unassigned) [Example 221] | – | B (EC1.5 1-25 μM) | A (Fold activation≥150%)
14 | O=C(NCC(F)(F)F)c1ccc2c(n1)N(C(=O)Nc1cc(OC[C@H](O)CO)ccn1)[C@H]1CCN2C1 [Example 89, (4S)—N5-(4-((R)-2,3-dihydroxypropoxy)pyridin-2-yl)-N7-(2,2,2-trifluoroethyl)-3,4-dihydro-1,4-methanopyrido[2,3-b][1,4]diazepine-5,7(2H)-dicarboxamide] | > 150% | A (EC1.5<1 μM) | –
15 | CC[C@H](NC(=O)c1ccc2c(n1)N(C(=O)Nc1ccccn1)[C@H]1CCN2C1)C(F)(F)F [Example 31, (4S)—N5-(pyridin-2-yl)-N7-((S)-1,1,1-trifluorobutan-2-yl)-3,4-dihydro-1,4-methanopyrido[2,3-b][1,4]diazepine-5,7(2H)-dicarboxamide] | > 150% | A (EC1.5<1 μM) | –
16 | C[C@@H](NC(=O)c1ccc2c(n1)N(C(=O)Nc1cnccn1)[C@H]1CCN2C1)C(F)(F)F [Example 237, (4S)—N5-(pyrazin-2-yl)-N7-((R)-1,1,1-trifluoropropan-2-yl)-3,4-dihydro-1,4-methanopyrido[2,3-b][1,4]diazepine-5,7(2H)-dicarboxamide] | > 150% | A (EC1.5<1 μM) | –
17 | O=C(NCCC(F)(F)F)c1ccc2c(n1)N(C(=O)Nc1ccccn1)[C@H]1CCN2C1 [Example 124, (4S)—N5-(pyridin-2-yl)-N7-(3,3,3-trifluoropropyl)-3,4-dihydro-1,4-methanopyrido[2,3-b][1,4]diazepine-5,7(2H)-dicarboxamide] | > 150% | A (EC1.5<1 μM) | –
18 | O=C(NCC(F)(F)F)c1ccc2c(n1)N(C(=O)Nc1cnc(OC[C@@H](O)CO)cn1)[C@H]1CCN2C1 [Example 118, (4S)—N5-(5-((S)-2,3-dihydroxypropoxy)pyrazin-2-yl)-N7-(2,2,2-trifluoroethyl)-3,4-dihydro-1,4-methanopyrido[2,3-b][1,4]diazepine-5,7(2H)-dicarboxamide] | > 150% | B (EC1.5 1-25 μM) | –
19 | Cc1cc(C(=O)N[C@H](C)C(F)(F)F)nc2c1N1CC[C@@H](C1)N2C(=O)Nc1cc(OC[C@H](O)CO)ccn1 [Example 292, (4S)—N5-(4-((R)-2,3-dihydroxypropoxy)pyridin-2-yl)-9-methyl-N7-((R)-1,1,1-trifluoropropan-2-yl)-3,4-dihydro-1,4-methanopyrido[2,3-b][1,4]diazepine-5,7(2H)-dicarboxamide] | < 150% | A (EC1.5<1 μM) | –
20 | C[C@@H](NC(=O)c1ccc2c(n1)N(C(=O)Nc1cc(-c3cnco3)ccn1)[C@H]1CCN2C1)C(F)(F)F [Example 134, (4S)—N5-(4-(oxazol-5-yl)pyridin-2-yl)-N7-((R)-1,1,1-trifluoropropan-2-yl)-3,4-dihydro-1,4-methanopyrido[2,3-b][1,4]diazepine-5,7(2H)-dicarboxamide] | > 150% | A (EC1.5<1 μM) | –

— US10072011B2, “Substituted bridged urea analogs as sirtuin modulators” (GlaxoSmithKline Intellectual Property (No.2) Limited, priority 2014, dated 2018)
